Test results from ChEMBL document CHEMBL1275549, “A new tetracycline efflux gene, tet(40), is located in tandem with tet(O/32/O) in a human gut firmicute bacterium and in metagenomic library clones” (Antimicrob Agents Chemother, 2008).
Converted amounts (≈) assume the structure as drawn.

Experiments:
Escherichia coli [1] = assay: Antibacterial activity against Escherichia coli EPI300 expressing tet(40) gene assessed as bacterial growth at 80 ug/ml after 18 hrs in presence of 2.5 ug/ml efflux pump inhibitor […]
Escherichia coli [2] = assay: Antibacterial activity against Escherichia coli EPI300 expressing tet(40) gene assessed as bacterial growth at 60 ug/ml after 18 hrs in presence of 2.5 ug/ml efflux pump inhibitor CCCP
Escherichia coli [3] = assay: Antibacterial activity against Escherichia coli EPI300 expressing tet(W) gene assessed as bacterial growth at 60 ug/ml after 18 hrs in presence of 2.5 ug/ml efflux pump inhibitor CCCP
Escherichia coli [4] = assay: Antibacterial activity against Escherichia coli EPI300 expressing tet(40) gene assessed as inhibition of bacterial growth at 40 ug/ml after 18 hrs in presence of 2.5 ug/ml efflux pump inhibitor CCCP; values are per cent of control
Escherichia coli [5] = assay: Antibacterial activity against Escherichia coli EPI300 harboring plasmid GEM-T expressing tet(40) gene after 16 hrs; type: functional, organism-based; conditions: EPI300, 16 h
Escherichia coli [6] = assay: Antibacterial activity against Escherichia coli EPI300 expressing tet(W) gene assessed as inhibition of bacterial growth at 80 ug/ml after 18 hrs in presence of 2.5 ug/ml efflux pump inhibitor CCCP; values are per cent of control
Escherichia coli [7] = assay: Antibacterial activity against Escherichia coli EPI300 expressing tet(W) gene assessed as inhibition of bacterial growth at 40 ug/ml after 18 hrs in presence of 2.5 ug/ml efflux pump inhibitor CCCP; values are per cent of control

CN(C)[C@@H]1C(O)=C(C(N)=O)C(=O)[C@@]2(O)C(O)=C3C(=O)c4c(O)cccc4[C@@](C)(O)[C@H]3C[C@@H]12 [TETRACYCLINE]
growth, % of control (Escherichia coli [1]): 16.5% | growth, % of control (Escherichia coli [2]): 53.4% | growth, % of control (Escherichia coli [3]): 99.2% | growth, % of control (Escherichia coli [4]): 56.5% | IC50 (Escherichia coli [5]): 60 µg/mL (≈ 135 µM) | growth, % of control (Escherichia coli [6]): 75.4% | growth, % of control (Escherichia coli [7]): 96.4%
